MIC data for eight compounds are collected here from US20200339582A1, “Atypical Carbapenem Antibiotics with Improved Activity Against Carbapenemase-Producing Acinetobacter baumannii” (priority 2019, published 2020).

Assay type in all cases: cell-based
The test system of assay [1] is Acinetobacter baumannii (carbapenemase produced: None). Nature of the assay: MIC against Acinetobacter baumannii, no carbapenemase produced.
The test system of assay [2] is resistant Acinetobacter baumannii producing OXA-23. The assay can be described thus: MIC against Acinetobacter baumannii producing OXA-23.
Assay [3] has as its system resistant Acinetobacter baumannii producing OXA-48. The assay can be described thus: MIC against Acinetobacter baumannii producing OXA-48.
For assay [4], the system named is resistant Acinetobacter baumannii producing KPC-6. The assay can be described thus: MIC against Acinetobacter baumannii producing KPC-6.
The subject of assay [5] is resistant Acinetobacter baumannii producing NDM-1. The assay can be described thus: MIC against Acinetobacter baumannii producing NDM-1.
In assay [6] the test system is resistant Acinetobacter baumannii producing VIM-2. The assay can be described thus: MIC against Acinetobacter baumannii producing VIM-2.
Where [7] appears, read: Acinetobacter baumannii, Table 1, carbapenemase produced: None, read-out: MIC.
Where [8] appears, read: Acinetobacter baumannii, Table 2, enzyme produced: None, read-out: MIC.
[9] abbreviates: Acinetobacter baumannii, Table 1, carbapenemase produced: OXA-23, read-out: MIC.
Where [10] appears, read: Table 2, enzyme produced: OXA-23.
The mark [11] stands for this setting: Table 2, enzyme produced: OXA-48.
The mark [12] stands for this setting: Acinetobacter baumannii, Table 2, enzyme produced: NDM-1, read-out: MIC.
Where [13] appears, read: Table 1, carbapenemase produced: None.
Where [14] appears, read: Table 1, carbapenemase produced: OXA-23.
Where [15] appears, read: Table 1, carbapenemase produced: OXA-48.
Setting [16] is: Acinetobacter baumannii, Table 2, enzyme produced: VIM-2, read-out: MIC.
The mark [17] stands for this setting: Acinetobacter baumannii, Table 1, carbapenemase produced: OXA-48, read-out: MIC.
The mark [18] stands for this setting: Acinetobacter baumannii, Table 2, enzyme produced: OXA-48, read-out: MIC.

≈ marks a conversion by molar mass, not a printed value. Like-named read-outs stand apart in the source and are kept apart here.

Consider `C[C@@H](O)[C@H]1C(=O)N2C(C(=O)O)=C(S[C@@H]3CN[C@H](C(=O)Nc4cccc(C(=O)O)c4)C3)[C@H](C)[C@H]12` [Ertapenem, ertapenem], for which the MIC worked out at 2 µg/mL (≈ 4.21 µM) in assay [1] (setting [7]); 4 µg/mL (≈ 8.41 µM) in assay [1] (setting [8]); 256 mg/L (≈ 538 µM) in assay [2] (setting [9]); 256 mg/L (≈ 538 µM) in assay [2] (setting [10]); 128 µg/mL (≈ 269 µM) in assay [3] (Acinetobacter baumannii); 128 µg/mL (≈ 269 µM) in assay [3] (setting [11]). Besides, the MIC was over 512 µg/mL in assay [4] (Acinetobacter baumannii), 256 µg/mL (≈ 538 µM) in assay [5] (setting [12]) and over 512 µg/mL in assay [6] (Acinetobacter baumannii).

For the compound `C[C@@H](O)[C@H]1C(=O)N2C(C(=O)O)=C(S[C@@H]3CN[C@H](C(=O)N(C)C)C3)CC12C` (stereo partly drawn) [Compound 2a, (6S)-6-[(R)-1-Hydroxyethyl]-3-[(3S,5S)-5-(dimethylamino)carbonyl-3-pyrrolidinylthio]-5-methyl-7-oxoazabicyclo[3.2.0]hept-2-ene-2-carboxylate], the minimum inhibitory concentration (MIC) in assay [1] (setting [13]) is 0.5 µg/mL (≈ 1.3 µM); in assay [2] (setting [14]), 4 mg/L (≈ 10.4 µM); in assay [3] (setting [15]), 1 µg/mL (≈ 2.61 µM).

With `CC1(C)S[C@@H]2[C@H](NC(=O)[C@H](N)c3ccccc3)C(=O)N2[C@H]1C(=O)O` [AMP, ampicillin], the MIC in assay [1] (setting [8]) was 32 µg/mL (≈ 91.6 µM); in assay [2] (Acinetobacter baumannii, Table 2, enzyme produced: OXA-23, read-out: MIC), 8190 mg/L (≈ 23400 µM); in assay [3] (Acinetobacter baumannii), 1020 µg/mL (≈ 2930 µM); in assay [4] (Acinetobacter baumannii) it was 4100 µg/mL (≈ 11700 µM); in assay [5] (Acinetobacter baumannii) it was 1020 µg/mL (≈ 2930 µM); in assay [6] (setting [16]), over 8190 µg/mL.

With `C[C@@H](O)[C@H]1C(=O)N2C(C(=O)O)=C(S[C@@H]3CN[C@H](CNS(N)(=O)=O)C3)[C@H](C)[C@H]12` [Doripenem, doripenem], the MIC was 0.25 µg/mL (≈ 0.595 µM) in assay [1] (setting [7]); 0.25 µg/mL (≈ 0.595 µM) in assay [1] (setting [8]); 32 mg/L (≈ 76.1 µM) in assay [2] (setting [9]); 32 mg/L (≈ 76.1 µM) in assay [2] (setting [10]); 16 µg/mL (≈ 38 µM) in assay [3] (setting [17]); 16 µg/mL (≈ 38 µM) in assay [3] (setting [18]). Further, the minimal inhibitory concentration (MIC) in assay [4] (Acinetobacter baumannii) was found to be 128 µg/mL (≈ 304 µM); in assay [5] (setting [12]) it was 64 µg/mL (≈ 152 µM); in assay [6] (setting [16]), 32 µg/mL (≈ 76.1 µM).

Turning to `C[C@@H](O)[C@H]1C(=O)N2C(C(=O)O)=C(SCCN=CN)C[C@H]12` [Imipenem, imipenem], the MIC turned out to be 0.25 µg/mL (≈ 0.835 µM) in assay [1] (setting [7]); 0.25 µg/mL (≈ 0.835 µM) in assay [1] (setting [8]); 32 mg/L (≈ 107 µM) in assay [2] (setting [9]); 32 mg/L (≈ 107 µM) in assay [2] (setting [10]); 16 µg/mL (≈ 53.4 µM) in assay [3] (setting [17]); 16 µg/mL (≈ 53.4 µM) in assay [3] (setting [18]). Besides, the MIC stood at 16 µg/mL (≈ 53.4 µM) in assay [5] (setting [12]) and 32 µg/mL (≈ 107 µM) in assay [6] (setting [16]).

As to `C[C@@H](O)[C@H]1C(=O)N2C(C(=O)O)=C(S[C@@H]3CN[C@H](C(=O)N(C)C)C3)[C@H](C)[C@H]12` [Meropenem, meropenem], the MIC was determined as 0.5 µg/mL (≈ 1.3 µM) in assay [1] (setting [7]); 0.5 µg/mL (≈ 1.3 µM) in assay [1] (setting [8]); 64 mg/L (≈ 167 µM) in assay [2] (setting [9]); 64 mg/L (≈ 167 µM) in assay [2] (setting [10]); 8 µg/mL (≈ 20.9 µM) in assay [3] (setting [17]); 16 µg/mL (≈ 41.7 µM) in assay [3] (setting [18]). Besides, the MIC stood at 256 µg/mL (≈ 668 µM) in assay [4] (Acinetobacter baumannii), 128 µg/mL (≈ 334 µM) in assay [5] (Acinetobacter baumannii) and 64 µg/mL (≈ 167 µM) in assay [6] (setting [16]).

For `CN(C)C(=O)[C@@H]1C[C@H](SC2=C(C(=O)O)N3C(=O)[C@H](CO)[C@H]3C2)CN1` [Compound 1], the figures for the MIC in assay [1] (setting [13]), in assay [2] (setting [14]) and in assay [3] (setting [15]) were 0.25 µg/mL (≈ 0.703 µM), 8 mg/L (≈ 22.5 µM) and 16 µg/mL (≈ 45 µM), respectively.

Regarding `CCC12CC(S[C@@H]3CN[C@H](C(=O)N(C)C)C3)=C(C(=O)O)N1C(=O)[C@@H]2[C@@H](C)O` (stereo partly drawn) [Compound 2b, (6S)-6-[(R)-1-Hydroxyethyl]-3-[(3S,5S)-5-(dimethylamino)carbonyl-3-pyrrolidinylthio]-5-ethyl-7-oxoazabicyclo[3.2.0]hept-2-ene-2-carboxylate], the MIC in assay [1] (setting [13]) was 2 µg/mL (≈ 5.03 µM); in assay [1] (Table 2, enzyme produced: None), 2 µg/mL (≈ 5.03 µM); in assay [2] (setting [14]), 4 mg/L (≈ 10.1 µM); in assay [2] (setting [10]), 4 mg/L (≈ 10.1 µM); in assay [3] (setting [15]) it was 4 µg/mL (≈ 10.1 µM); in assay [3] (setting [11]) it was 4 µg/mL (≈ 10.1 µM). The MIC in assay [4] (Table 2, enzyme produced: KPC-6) is 4 µg/mL (≈ 10.1 µM); in assay [5] (Table 2, enzyme produced: NDM-1), 2 µg/mL (≈ 5.03 µM); in assay [6] (Table 2, enzyme produced: VIM-2), 4 µg/mL (≈ 10.1 µM).

A word on the MIC: it is the smallest concentration in the dilution series that meets the test's criterion for growth inhibition.
